The results in this text go back to patent publication US20070249620A1, “Urea Derivative” (priority 2004, published 2007).

One series deals with T1, mouse DGAT1 (Mus musculus, UniProt Q9Z2A7).
T1 construct: made in house; host or cells: insect cells (High Five, Sf9, Sf21, etc.), baculovirus expression system (Invitrogen)
T1 sequence (Q9Z2A7 1-498): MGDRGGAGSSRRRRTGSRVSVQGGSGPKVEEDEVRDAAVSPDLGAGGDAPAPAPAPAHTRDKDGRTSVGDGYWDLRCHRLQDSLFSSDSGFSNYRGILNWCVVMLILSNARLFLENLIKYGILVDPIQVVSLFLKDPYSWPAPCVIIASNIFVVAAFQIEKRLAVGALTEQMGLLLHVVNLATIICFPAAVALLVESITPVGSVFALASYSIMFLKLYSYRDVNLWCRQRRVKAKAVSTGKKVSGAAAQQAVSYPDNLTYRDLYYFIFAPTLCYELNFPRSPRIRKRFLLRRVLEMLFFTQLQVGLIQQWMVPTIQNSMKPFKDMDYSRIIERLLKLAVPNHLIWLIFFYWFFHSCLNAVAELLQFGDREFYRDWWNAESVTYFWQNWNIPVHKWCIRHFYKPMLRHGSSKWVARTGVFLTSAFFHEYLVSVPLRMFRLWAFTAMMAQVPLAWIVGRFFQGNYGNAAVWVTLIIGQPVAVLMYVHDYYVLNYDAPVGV
Briefly: DGAT1 inhibitory effect test (microsome fraction, [14C]-oleoyl-CoA, triglyceride radioactivity by TLC). The class given is biochemical. The note with it: 0.5 h; concentration of the test compound 0.1 μg/ml; mouse DGAT1 microsomes, 23° C., 30 minutes; read-out: Inhibitory ratio. The gist of the method: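 Inhibition was scored from radiolabelled triglyceride separated by TLC, relative to vehicle and net of a 0-min background. The reaction ran for 30 min at room temperature (23 °C) in Tris-HCl pH 8.0 with MgCl2, BSA and Triton X-100. Substrates were 30 μM [14C]-oleoyl-CoA and 0.5 mM dioleoylglycerol, with mouse DGAT1 microsomes from baculovirus-infected insect cells as enzyme.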

One may read the melting point as the temperature, or range, at which the solid turns liquid. Regarding `COc1ccccc1NC(=O)Nc1ccc(N2CCN(C(=O)Nc3ncccc3C)CC2)cc1` [Example 309, 4-{4-[3-(2-methoxy-phenyl)-ureido]-phenyl}-piperazine-1-carboxylic acid (3-methyl-pyridin-2-yl)-amide], the melting point was in the range of 207 to 209 °C. For the same molecule, the inhibition at 0.1 µg/mL on mouse DGAT1 is no less than 50%.
The like results for `COc1ccc(Cl)cc1NC(=O)Nc1ccc(N2CCN(C(=O)Nc3ncccc3C)CC2)cc1` [Example 310, 4-{4-[3-(5-chloro-2-methoxy-phenyl)-ureido]-phenyl}-piperazine-1-carboxylic acid (3-methyl-pyridin-2-yl)-amide] were, in that order, 163 to 165 °C and no less than 50%.
For `CCOc1ccc(C)cc1NC(=O)Nc1ccc(N2CCN(C(=O)Nc3ncccc3C)CC2)cc1` [Example 311, 4-{4-[3-(2-ethoxy-5-methyl-phenyl)-ureido]-phenyl}-piperazine-1-carboxylic acid (3-methyl-pyridin-2-yl)-amide], in that order: 206 to 208 °C and no less than 50%.
The like results for `COc1ccc(C)cc1NC(=O)Nc1ccc(N2CCN(C(=O)Nc3ncccc3C)CC2)c(F)c1` [Example 312, 4-{2-fluoro-4-[3-(2-methoxy-5-methyl-phenyl)-ureido]-phenyl}-piperazine-1-carboxylic acid (3-methyl-pyridin-2-yl)-amide] were, in that order, 188 to 190 °C and no less than 50%.
In turn, `COc1ccc(C)cc1NC(=O)Nc1ccc(N2CCN(C(=O)Nc3ncccc3C)CC2)c(C)c1` [Example 313, 4-{4-[3-(2-methoxy-5-methyl-phenyl)-ureido]-2-methyl-phenyl}-piperazine-1-carboxylic acid (3-methyl-pyridin-2-yl)-amide] had a melting point of 144 to 146 °C. Also, the inhibition at 0.1 µg/mL on mouse DGAT1 is no less than 50%.
Take `COc1ccc(C)cc1NC(=O)Nc1ccc(C2=CCN(C(=O)Nc3ncccc3C)CC2)cc1` [Example 324, 4-{4-[3-(2-methoxy-5-methyl-phenyl)-ureido]-phenyl}-3,6-dihydro-2H-pyridine-1-carboxylic acid (3-methyl-pyridin-2-yl)-amide]: the melting point fell in the range of 195 to 198 °C. For the same molecule, the inhibition at 0.1 µg/mL on mouse DGAT1 was no less than 50%.
For `COc1cc(NC(=O)Nc2ccc(N3CCN(C(=O)Nc4ncc(F)cc4F)CC3)cc2)cc(OC)c1` [Example 341, 4-{4-[3-(3,5-dimethoxy-phenyl)-ureido]-phenyl}-piperazine-1-carboxylic acid (3,5-difluoro-pyridin-2-yl)-amide], in that order: 204 to 205 °C and no less than 50%.
The like results for `O=C(Nc1ccc(N2CCN(C(=O)C(O)c3ccccc3Cl)CC2)nc1)Nc1ccccc1F` (stereo not drawn) [Example 377, 1-(6-{4-[2-(2-chloro-phenyl)-2-hydroxy-acetyl]-piperazin-1-yl}-pyridin-3-yl)-3-(2-fluoro-phenyl)-urea] were, in that order, 127 to 128 °C and no less than 50%.
For `COc1ccc(C)cc1NC(=O)Nc1ccc(N2CCN(C(=O)C(O)c3ccccc3Cl)CC2)cc1` (stereo not drawn) [Example 378, 1-(4-{4-[2-(2-chloro-phenyl)-2-hydroxy-acetyl]-piperazin-1-yl}-phenyl)-3-(2-methoxy-5-methyl-phenyl)-urea], in that order: 118 to 120 °C and no less than 50%.
On to `O=C(Nc1ccc(N2CCN(C(=O)C(O)c3ccc(O)cc3Cl)CC2)nc1)Nc1ccccc1F` (stereo not drawn) [Example 379, 1-(6-{4-[2-(2-chloro-4-hydroxy-phenyl)-2-hydroxy-acetyl]-piperazin-1-yl}-pyridin-3-yl)-3-(2-fluoro-phenyl)-urea], for which the melting point fell in the range of 133 to 135 °C. The inhibition at 0.1 µg/mL at mouse DGAT1 is no less than 50%.
The like results for `COc1ccc(C)cc1NC(=O)Nc1ccc(N2CCN(C(=O)C(O)c3ccccc3Cl)CC2)nc1` (stereo not drawn) [Example 380, 1-(6-{4-[2-(2-chloro-phenyl)-2-hydroxy-acetyl]-piperazin-1-yl}-pyridin-3-yl)-3-(2-methoxy-5-methyl-phenyl)-urea] were, in that order, 118 to 120 °C and no less than 50%.
For `O=C(Nc1ccc(N2CCN(C(=O)Nc3ccc(C(=O)O)cc3Cl)CC2)cc1)Nc1ccccc1F` [Example 388, 3-chloro-4-[(4-{4-[3-(2-fluoro-phenyl)-ureido]-phenyl}-piperazine-1-carbonyl)-amino]-benzoic acid], in that order: 250 to 253 °C and no less than 50%.
The like results for `CCOP(=O)(O)Cc1ccc(NC(=O)N2CCN(c3ccc(NC(=O)Nc4cc(C)ccc4OC)cc3)CC2)c(C)c1` [Example 391, {4-[(4-{4-[3-(2-methoxy-5-methyl-phenyl)-ureido]-phenyl}-piperazine-1-carbonyl)-amino]-3-methyl-benzyl}-phosphonic acid monoethyl ester] were, in that order, 165 to 173 °C and no less than 50%.
`COC(=O)Cc1ccc(OC(=O)N2CCN(c3ccc(NC(=O)Nc4cc(C)ccc4OC)cc3)CC2)c(Cl)c1` [Example 393, 4-{4-[3-(2-methoxy-5-methyl-phenyl)-ureido]-phenyl}-piperazine-1-carboxylic acid 2-chloro-4-methoxycarbonylmethyl-phenyl ester] gave a melting point of 209 to 210 °C. Further, the inhibition at 0.1 µg/mL on mouse DGAT1 is no less than 50%.
The like results for `COc1ccc(C)cc1NC(=O)Nc1ccc(N2CCN(C(=O)Oc3ccc(CC(=O)O)cc3Cl)CC2)cc1` [Example 394, 4-{4-[3-(2-methoxy-5-methyl-phenyl)-ureido]-phenyl}-piperazine-1-carboxylic acid 4-carboxymethyl-2-chloro-phenyl ester] were, in that order, 199 to 200 °C and no less than 50%.
For `COc1ccc(C)cc1NC(=O)Nc1ccc(N2CCN(C(=O)Oc3ccc(CCO)cc3Cl)CC2)cc1` [Example 395, 4-{4-[3-(2-methoxy-5-methyl-phenyl)-ureido]-phenyl}-piperazine-1-carboxylic acid 2-chloro-4-(2-hydroxy-ethyl)-phenyl ester], in that order: 189 to 190 °C and no less than 50%.
For `COc1ccc(C)cc1NC(=O)Nc1ccc2c(c1)CCN(C(=O)Oc1ccc(CCO)cc1Cl)C2` [Example 396, 6-[3-(2-methoxy-5-methyl-phenyl)-ureido]-3,4-dihydro-1H-isoquinoline-2-carboxylic acid 2-chloro-4-(2-hydroxy-ethyl)-phenyl ester], in that order: 95 to 98 °C and no less than 50%.
Turning to `COc1ccc(C)cc1NC(=O)Nc1ccc2c(c1)CCN(C(=O)Oc1ccc(C(=O)O)cc1Cl)C2` [Example 397, 6-[3-(2-methoxy-5-methyl-phenyl)-ureido]-3,4-dihydro-1H-isoquinoline-2-carboxylic acid 4-carboxy-2-chloro-phenyl ester], the melting point was 196 to 198 °C. Moreover, the inhibition at 0.1 µg/mL at mouse DGAT1 is no less than 50%.
